Results as given in patent US7575882B2, “Compositions and methods for identifying modulators of TRPV2” (Janssen Pharmaceutica N. V., priority 2005, dated 2009).

Experiments:
Assay type in all cases: cell-based
[1] = system: untransfected HEK293 cells; assay: Whole-cell patch clamp, untransfected HEK293 cells (control); settings: 100 μM; data not shown
Experimental: (§1) To further confirm the Δ^9-THC effect on TRPV2, whole-cell patch clamp studies were performed. The extracellular solution contained (in mM): NaCl, 132; CaCl, 1.8; KCl, 5.4; MgCl2, 0.8; HEPES, 10; glucose, 10; pH=7.4. The intracellular solution used to fill recording pipettes contained (in mM): CsCl, 145; EGTA, 5; HEPES, 10; glucose, 5; pH=7.4. Recordings were performed using the conventional whole-cell patch clamp technique, 2-3 days after transient transfection of human TRPV2 into HEK293 cell or 1-2 days after plating HEK293 cells stably expressing rat TRPV2 onto glass coverslips. Currents were amplified by a patch clamp amplifier and filtered at 2 kHz (Axopatch 200B), sampled at 10 kHz using Digidata 1322A and acquired and analyzed with pClamp 9.0 (all instruments from Molecular Devices, CA). A 600 ms voltage ramp was given once every five seconds from −100 mV to +60 mV. The holding potential between voltage ramps was −100 mV. Extracellular solutions were applied to the cell at 0.5 ml/min via a gravity-fed perfusion system. All experiments were performed at 22° C.

rat TRPV2 = target: T1, rat TRPV2 (Rattus norvegicus, UniProt Q9WUD2, A713V/L151P/T158I); assay: Whole-cell patch clamp, HEK293 cells stably expressing rat TRPV2; settings: 100 μM
T1 construct: A cDNA fragment encoding the full-length rat TRPV2 was subcloned into pCI-neo; expressed in transfected cells
T1 sequence (Q9WUD2 1-761 L151P/T158I/A713V): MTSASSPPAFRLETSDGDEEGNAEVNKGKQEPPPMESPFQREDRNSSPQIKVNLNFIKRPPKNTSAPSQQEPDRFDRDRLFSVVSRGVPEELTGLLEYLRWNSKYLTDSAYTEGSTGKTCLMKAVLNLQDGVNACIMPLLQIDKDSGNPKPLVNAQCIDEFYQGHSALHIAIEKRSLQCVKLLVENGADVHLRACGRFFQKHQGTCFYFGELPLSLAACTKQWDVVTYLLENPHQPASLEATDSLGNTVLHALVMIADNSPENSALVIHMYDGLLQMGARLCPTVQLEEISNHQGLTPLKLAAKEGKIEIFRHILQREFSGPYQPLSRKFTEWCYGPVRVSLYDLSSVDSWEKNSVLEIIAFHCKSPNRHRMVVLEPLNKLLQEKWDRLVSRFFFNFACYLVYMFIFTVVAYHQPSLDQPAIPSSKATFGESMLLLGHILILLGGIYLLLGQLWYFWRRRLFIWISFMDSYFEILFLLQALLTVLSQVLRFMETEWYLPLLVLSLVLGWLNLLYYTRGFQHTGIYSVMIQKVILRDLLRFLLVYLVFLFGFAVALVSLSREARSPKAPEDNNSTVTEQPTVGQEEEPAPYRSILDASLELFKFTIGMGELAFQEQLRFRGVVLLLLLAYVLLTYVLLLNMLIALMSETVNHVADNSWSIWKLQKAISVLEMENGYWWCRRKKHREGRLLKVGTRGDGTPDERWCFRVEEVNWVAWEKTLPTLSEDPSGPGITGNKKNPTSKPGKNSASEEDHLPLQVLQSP
Experimental: as §1

[2] = target: T2, rat and human TRPV2 chimera RHR (Rattus norvegicus, UniProt Q9WUD2, A398L/D418K/D570G/D595E/E431N/E493A/E569T/E577V/E585D/F395L/F429V/I422A/INS586GN/K566E/L151P/L436T/L450V/L461V/L478F/L485V/L503S/M468I/M492L/N571P/P420Q/P587G/P589Q/Q419K/R460H/R490C/R560Q/R563W/R617H/S416T/S424H/S425L/S504A/S564R/S573A/S592G/T428E/T494I/T576S/T580M/V402I/V409A/V543I/V575E/V581E/V621M/V635I/Y400N); assay: Calcium mobilization in HEK293 cells expressing TRPV2 chimera RHR; settings: transient expression in HEK293
T2 construct: expressed in transfected cells; host or cells: HEK293, transient, pCI-neo
T2 sequence (Q9WUD2 other isoform, or with tags, fused parts or gaps with the stated changes): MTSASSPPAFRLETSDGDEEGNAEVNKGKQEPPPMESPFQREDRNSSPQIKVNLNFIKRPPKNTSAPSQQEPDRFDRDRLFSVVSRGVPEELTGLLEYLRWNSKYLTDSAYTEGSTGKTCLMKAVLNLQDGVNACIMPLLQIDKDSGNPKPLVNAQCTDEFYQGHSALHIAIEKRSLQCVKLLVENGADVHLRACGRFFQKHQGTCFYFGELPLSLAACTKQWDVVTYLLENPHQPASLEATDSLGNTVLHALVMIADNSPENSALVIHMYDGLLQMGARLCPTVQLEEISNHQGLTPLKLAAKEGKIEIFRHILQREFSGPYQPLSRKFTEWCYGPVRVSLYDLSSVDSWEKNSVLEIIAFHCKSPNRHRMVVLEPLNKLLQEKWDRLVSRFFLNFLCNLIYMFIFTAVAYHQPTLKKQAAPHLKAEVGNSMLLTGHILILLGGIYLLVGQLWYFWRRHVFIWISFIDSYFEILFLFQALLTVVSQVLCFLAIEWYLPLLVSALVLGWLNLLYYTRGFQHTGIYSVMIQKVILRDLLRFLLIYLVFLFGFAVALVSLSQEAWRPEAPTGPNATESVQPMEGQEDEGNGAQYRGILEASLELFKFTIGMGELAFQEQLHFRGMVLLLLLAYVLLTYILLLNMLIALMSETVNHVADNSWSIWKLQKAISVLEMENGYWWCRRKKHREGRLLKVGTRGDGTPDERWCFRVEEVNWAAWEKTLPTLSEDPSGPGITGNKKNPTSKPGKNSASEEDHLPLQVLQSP
Experimental: The deletion mutant constructs were then transfected into HEK293 cells using Fugene 6 reagent (Roche) as per the manufacturer's instructions. At 24 hours post-transfection, the cells were harvested and replated in fresh DMEM medium supplemented with 10% fetal bovine serum, 100 units/ml penicillin, and 100 μg/ml streptomycin. The cells were distributed onto poly-D-Lysine coated 96-or 384-well plates at a density of approximately 40,000 and 10,000 cells per well, respectively. At approximately 48 hours post-transfection, the medium was removed from the assay plate and replaced with Calcium 3 Dye Buffer (Molecular Devices) using the protocol available from the manufacturer. Calcium mobilization was triggered using Δ^9-THC or 2-APB or elevated temperature buffer and measured using either FLIPR or FLEX STATION instruments.
Based on the predicted topology and primary sequence features of TRPV2, TRPV2 are divided into 3 major domains: 1) the amino-terminal intracellular domain; 2) the transmembrane domain; and 3) the carboxyl-terminal intracellular domain. For a chimera, each domain can be of rat (R) or human (H) origin. Three rat and human TRPV2 chimera were constructed and tested herein. RRH (SEQ ID NO:15) was a chimera comprising rat 1-392 aa, rat 393-646 aa, and human 647-764 aa. RHR (SEQ ID NO:16) was a chimera comprising rat 1-392, human 391-646, and rat 647-761. HRR (SEQ ID NO:17) was a chimera comprising human 1-390, rat 393-646, and rat 647-761.
DNA molecules encoding the three rat and human TRPV2 chimeras were obtained by fusion PCR. First, DNA molecules encoding the desired TRPV2 domains were amplified by PCR using the rat or human TRPV2 cDNA as the template with synthetic primer DNA containing in-frame sequence that overlapped with the other species domain to be linked. After PCR amplification and purification, DNA molecules encoding the desired TRPV2 domains from human and rat were combined and used as templates for fusion PCR with primer DNA matching the 5′ and 3′ end sequences of the coding sequence for the full length TRPV2 chimera. […]

Substance: Delta-9-tetrahydrocannabinol [Δ^9-THC]
- current above control level in untransfected HEK293 cells [1]: no current above control level
- whole-cell current amplitude in HEK293 cells expressing rTRPV2 compared to control (rat TRPV2; 22° C., hyperpolarized and depolarized potentials): significant increase of the whole-cell current amplitude
- reversal potential of the activated current (rat TRPV2; whole-cell patch clamp): ~0 mV
- response of chimera RHR to the compound [2]: fully responsive
- response of chimera RHR to the compound ([2]; listed as Δ9-THC): active
